Results published in patent publication US11116804B2, “Modulation of the gut microbiome to treat mental disorders or diseases of the central nervous system” (Holobiome, Inc., priority 2016, dated 2021).
Entries after “also recorded” stand apart in the source; their conditions may differ.

Assays:
[1] = in mice; cited from earlier work
[2] = in rodents; cited from earlier work
E. gabavorous KLE1738 = assay: Growth induction of E. gabavorous by compounds spotted on FAAy plates; format: cell-based, Evtepia gabavorous; settings: 5 μL of stock spotted on FAAy plates spread with E. gabavorous, anaerobic, one week
Description: Stocks of each compound (purchased from Sigma, excluding the ATCC Mineral and Vitamin mixes) were prepared dependent on solubility in water at the concentrations shown in FIG. 2G. Five μL of the stocks were then spotted on FAAy plates spread with E. gabavorous, and incubated anaerobically for one week, and any growth was observed.

Structure (SMILES) | half-life [1] [min] | brain efflux rate relative to influx rate [2] [times] | growth induction of E. gabavorous by spotted compound (E. gabavorous KLE1738)
NCCCC(=O)O [GABA, gamma-aminobutyric acid] | 17 | 17 | capable of inducing growth of E. gabavorous KLE1738; also recorded: caused growth induction; also recorded: induced growth
C[C@H](N)C(=O)O [alanine] |  |  | only GABA caused growth induction
NC(=O)CC[C@H](N)C(=O)O [glutamine] |  |  | only GABA caused growth induction
CC(O)C(=O)O (stereo not shown) [lactic acid] |  |  | only GABA caused growth induction
O=C(O)CC(=O)O [malonic acid] |  |  | only GABA caused growth induction
O=C(O)CCC(=O)O [succinic acid] |  |  | only GABA caused growth induction
C[C@@H](O)[C@H](N)C(=O)O [threonine] |  |  | only GABA caused growth induction
CC(C)[C@H](N)C(=O)O [valine] |  |  | only GABA caused growth induction
